Reference: PubChem BioAssay (NCI)
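Method: 48-hour compound exposure of cells in 96-well plates, five concentrations, linear interpolation of endpoints. At the GI50, growth is halved. The concentration for full growth arrest is given as TGI.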

Columns and labels:
Assay in all cases: growth of human tumour cells (NCI), 48 h
[1] = system: SK-OV-3 ovarian
[2] = system: SF-539 CNS
[3] = system: RXF 393 renal
[4] = system: MOLT-4 leukemia
[5] = system: IGROV1 ovarian
[6] = system: CCRF-CEM leukemia
[7] = system: NCI-H460 lung
[8] = system: SNB-19 CNS
[9] = system: NCI-H226 lung
[10] = system: HS 578T breast

Compound	TGI [1] [µM]	TGI [2] [µM]	TGI [3] [µM]	TGI [4] [µM]	TGI [5] [µM]	TGI [6] [µM]	TGI [7] [µM]	TGI [8] [µM]	TGI [9] [µM]	GI50 [1] [µM]	GI50 [4] [µM]	GI50 [5] [µM]	GI50 [6] [µM]	GI50 [7] [µM]	GI50 [8] [µM]	GI50 [10] [µM]	TGI [10] [µM]	GI50 [9] [µM]
CCOC(=O)C(Sc1ccccc1)c1c(OC)cc(=O)oc1/C=[N+](/[O-])c1ccc(N(C)C)cc1 (centres undefined)	> 100	56.9	32.5	37.9	> 100	15.4	82.5	> 100										
CCNC1C2(CCCCC2)NC(=O)C12CCCCC2 (centres undefined)	> 100	> 100	> 100	> 100	> 100	> 100	> 100		> 100									
N#CC(C#N)=c1ccc(=C2NCC3CCCN23)cc1 (centres undefined)	> 100	> 100	> 100	> 100	> 100	> 100	> 100	> 100	> 100									
Oc1ccc(Cl)cc1-c1cc(-c2ccccc2Cl)[nH]n1	> 100			> 100	> 100	> 100	> 100	> 100	> 100	> 100	5.38	1.66	2.71	3.47	> 100	7.85	> 100	13.8
Nc1ccc(C(=O)N/C(=C\c2ccc3c(c2)OCO3)c2nc3[nH]c(=S)[nH]c(=O)c3[nH]2)cc1	> 100	> 100	> 100	> 100	> 100	> 100		> 100										
CCN(CC)CC(C(=O)Nc1c(C)cccc1C)/C(C)=N\NC(=O)C[N+](C)(C)C (centres undefined)	> 100	> 100	> 100	> 100	> 100		> 100	> 100	> 100									
COc1ccc(-n2/c(=N/C(=S)N(C)C)ss/c2=N\C(=S)N(C)C)cc1	> 100	> 100	> 100	> 100	> 100		11.2	45.5	> 100									
c1cc2c(cc1NC1=NCCO1)CCC2	> 10	> 10	> 10	> 10	> 10	> 10		7.72									> 10	
O=C(N/C(=C\c1cc(Cl)ccc1Cl)c1nc2[nH]c(=S)[nH]c(=O)c2[nH]1)c1ccccc1	> 100	> 76.7	41.5	> 80.8	> 70.6	69.7	> 100	> 100	> 100									
CCOC(=O)COc1cccc2c1C(=O)CCO2	> 100	> 100		> 100	> 100	> 100	> 100	> 100										
CC1(C)OC(=O)C(=Cc2ccc(O)cc2)C(=O)O1	> 100	> 100		> 100	> 100	> 100	> 100	> 100	> 100									
C/C(CCn1[nH]c(=O)ccc1=O)=N\O		> 100	> 100	> 100	> 100	> 100	> 100	> 100	> 100									
